# Test results reported in US6646137B1, “Non-peptide GnRH agents” (priority 1998, dated 2003).
# Biological target: T1, human GnRH receptor (Homo sapiens, UniProt P30968)
# T1 construct: The cDNA for the human GnRH receptor is cloned into the plasmid expression vector, pcDNA 3; expressed in transfected cells; host or cells: HEK 293 cells, stably transfected (pcDNA 3); membrane preparation
# T1 sequence (P30968 1-328): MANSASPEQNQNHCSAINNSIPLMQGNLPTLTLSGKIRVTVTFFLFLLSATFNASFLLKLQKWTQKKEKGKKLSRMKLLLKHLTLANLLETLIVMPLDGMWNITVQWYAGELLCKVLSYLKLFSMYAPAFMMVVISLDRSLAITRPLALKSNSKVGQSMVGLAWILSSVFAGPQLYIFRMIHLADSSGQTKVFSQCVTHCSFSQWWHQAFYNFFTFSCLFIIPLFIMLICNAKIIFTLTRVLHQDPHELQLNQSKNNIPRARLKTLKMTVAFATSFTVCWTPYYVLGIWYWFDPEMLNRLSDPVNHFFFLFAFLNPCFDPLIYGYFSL
# Assay: GnRH receptor competitive radioligand binding assay (125I-GnRH-A, HEK 293 cell membranes)
# Details: compound at 10 μM; average of 1st and 2nd test; read-out: Average % Remaining (percent of specific binding remaining)
# Excerpt: The cDNA for the human GnRH receptor is cloned into the plasmid expression vector, pcDNA 3 (In Vitrogen), and stably transfected in HEK 293 cells (a cell line developed by Dr. Stuart Sealfon, Mount Sinai Medical School, New York, N.Y.).
# The human GnRH receptor (hGnRH) is cloned into pcDNA 3 (In Vitrogen), which provides high-level expression and a neomycin resistance marker. Lipofectamine (GIBCO BRL) is used to transfect HEK 293 cells with plasmid DNA. This method involves mixing the plasmid and reagent in serum-free medium, allowing DNA-liposome complexes to form, and overlaying cells with this solution. The HEK 293 cells are plated (seeded) on a 10-cm tissue culture dish at a density of 3×10^6 cells/dish the day before transfection. For each plate, 8 μg DNA plus 0.8 mL serum-free medium is mixed with 48 μL lipofectamine plus 0.8 mL serum-free medium, followed by incubation for 30 minutes at room temperature to allow DNA-liposome complexes to form. Serum-free medium is added to give a final volume of 6 mL/plate. The cells are rinsed twice with serum-free medium and overlayed with the DNA-liposome mixture. Five hours after transfection, an equal volume (6 mL) of medium containing 20% FBS (fetal bovine serum) is added. The cells are fed with fresh complete medium 18-24 hours after transfection. The cells are split 72 hours following transfection, at densities of 1:10 and 1:20. Stable tranformants are selected for by growth of the cells in antibiotic containing medium (G418, Sigma Chemical Company (also known as Geneticin)). Colonies are isolated and tested for receptor expression by radioligand binding and by measuring phosphoinositol turnover.
# HEK 293 cells stably transfected with human GnRH receptors as described above are grown in MEM (minimal essential medium, available from Sigma Chemical Company) supplemented with 0.1% G418 (Sigma Chemical Company). Cells are homogenized in buffer A containing 50 mM Tris (pH 74.), 0.32M sucrose, 2 mM ethyleneglycol-bis(β-aminoethyl)-N,N,N′,N′-tetraacetic acid (EGTA), 1 mM phenylmethylsulfonyl fluoride (PMSF), 5 μg/mL aprotinen, 5 μg/mL Pepstatin A, and 1 μg/mL leupeptin. The homogenized cells are centrifuged at 4° C. at 20,000×g for 25 minutes, resuspended in buffer A, and recentrifuged at 4° C. at 20,000×g for an additional 25 minutes. Total membrane protein is determined with a BCA kit (Pierce, Rockford, Ill.). Membranes are stored at −70° C. at a final membrane protein concentration of 5 mg/mL.
# The radioiodinated agonist analog of GnRH, [des-Gly^10, D-Ala^8]GnRH ethylamide (GnRH-A), is used as the labeled ligand. One μg of GnRH-A diluted in 0.1M acetic acid is added to an lodogen®-coated borosilicate glass tube pierce) containing 35 μL of 0.05M phosphate buffer (pH 7.4-7.6) and 1 mCi of Na[^125I]. The reaction mixture is vortexed and incubated for 1 minute at room temperature. After one minute, the mixture is vortexed again and allowed to incubate for an additional minute. Two mL of 0.5M acetic acid/1% BSA is added to the reaction tube, and the mixture is added to a C18 Sep-Pak cartridge. The cartridge is washed with subsequent washes of 5 mL H2O and 5 mL 0.5M acetic acid, and then eluted with 5×1 mL of 60% CH3CN/40% 0.5M acetic acid. The eluant is diluted with 3×volume of HPLC buffer A (0.1% TFA in H2O) and loaded onto a C18 column. The iodinated product is eluted over 20-25 minutes with a gradient of 25-100% CH3CN containing 0.1% TFA. The radioactive fractions (750 μL/fraction) are collected into clean polypropylene tubes containing 10 μL of 10% BSA. Fractions are assessed for biological activity by radioligand binding. Active fractions are utilized to screen the compounds for competitive binding assays.
# HEK 293 cell membranes stably expressing hGnRHR (human GnRH receptors) are diluted to 0.5-1.0 mg/mL with assay buffer containing 50 mM HEPES (pH 7.4), 1 mM ethylenediarninetetraacetic acid (EDTA), 2.5 mM MgCl2, and 0.1% BSA. […]
row,Compound,remaining activity at 10 µM
1,N=C(N)NCc1ccc(CN(CC23CC=CCC2C2CC=CCC2O3)C(=O)c2ccco2)cc1 (stereo not drawn) [Compound 7],53%
2,N=C(N)NCc1ccc(CN(CC23CC=CCC2C2CC=CCC2O3)C(=O)c2ccc3ccccc3c2)cc1 (stereo not drawn) [Compound 5],37%
3,Cc1cc2c(cc1CN(Cc1ccc(CNC(=N)N)cc1)C(=O)c1ccccc1)C(C)(C)CCC2(C)C [Compound 14],55%
4,N=C(N)NCC1CCCC(CN(Cc2ccc3c(c2)OCCO3)C(=O)c2ccc3ccccc3c2)C1 (stereo not drawn) [Compound 66],54%
5,Cc1cc2c(cc1CN(CC1CCCC(CNC(=N)N)C1)C(=O)c1ccccc1)C(C)(C)CCC2(C)C (stereo not drawn) [Compound 56],58%
6,N=C(N)NCc1cccc(CN(CC23CC=CCC2C2CC=CCC2O3)C(=O)c2ccc3ccccc3c2)c1 (stereo not drawn) [Compound 39],46%
7,N=C(N)NCC1CCCC(CN(Cc2cnc3ccccc3c2)C(=O)c2cccc3ccccc23)C1 (stereo not drawn) [Compound 50],55%
8,Cc1cc(C(=O)N(Cc2cc3c(cc2C)C(C)(C)CCC3(C)C)CC2CCC(CNC(=N)N)CC2)n(C(C)(C)C)n1 (stereo not drawn) [Compound 105],56%
9,CC(=O)N(CCCCNC(=N)N)Cc1ccc(OCc2ccccc2)c(OCc2ccccc2)c1 [Compound 35],52%
10,CC(=O)N(Cc1ccc(CNC(=N)N)cc1)Cc1ccc(OCc2ccccc2)c(OCc2ccccc2)c1 [Compound 21],49%
11,N=C(N)NCC1CCCC(CN(CC23CC=CCC2C2CC=CCC2O3)C(=O)c2ccc(Cl)nc2)C1 (stereo not drawn) [Compound 49],58%
12,CC(C)(C)c1ccc(CN(CC2CCCC(CNC(=N)N)C2)C(=O)c2ccccc2)cc1 (stereo not drawn) [Compound 44],60%
13,CN(C)Cc1ccc(CN(CC2C=CCC3C4CC=CCC4OC23)C(=O)c2ccc3ccccc3c2)cc1 (stereo not drawn) [Compound 68],48%
14,N=C(N)NCc1ccc(CN(CC23CC=CCC2C2CC=CCC2O3)C(=O)c2ccc(Cl)nc2)cc1 (stereo not drawn) [Compound 9],52%
15,Cc1cc2c(cc1CN(Cc1ccc(CNC(=N)N)cc1)C(=O)c1cccc3ccccc13)C(C)(C)CCC2(C)C [Compound 11],53%
16,N=C(N)NCC1CCCC(CN(Cc2cnc3ccccc3c2)C(=O)c2ccc3ccccc3c2)C1 (stereo not drawn) [Compound 51],56%
17,CCCCC(CC)C(=O)N(Cc1cc2c(cc1C)C(C)(C)CCC2(C)C)CC1CCC(CNC(=N)N)CC1 (stereo not drawn) [Compound 117],57%
18,Cc1cc2c(cc1CN(CC1CCC(CNC(=N)N)CC1)C(=O)c1c(C)noc1C)C(C)(C)CCC2(C)C (stereo not drawn) [Compound 96],52%
19,CC(C)(C)c1ccc(CN(CC2CCC(CNC(=N)N)CC2)C(=O)C2CCCC2)cc1 (stereo not drawn) [Compound 73],58%

# Same assay, conditions: compound at 10 μM; crude compounds; 125I-GnRH-A; lower value = higher inhibition; read-out: % Remaining 1st Test (percent of specific binding remaining)
row,Compound,remaining activity at 10 µM
1,N=C(N)NCc1ccc(CN(CC23CC=CCC2C2CC=CCC2O3)C(=O)c2ccco2)cc1 (stereo not drawn) [Compound 7],51%
2,N=C(N)NCc1ccc(CN(CC23CC=CCC2C2CC=CCC2O3)C(=O)c2ccc3ccccc3c2)cc1 (stereo not drawn) [Compound 5],31%
3,Cc1cc2c(cc1CN(Cc1ccc(CNC(=N)N)cc1)C(=O)c1ccccc1)C(C)(C)CCC2(C)C [Compound 14],56%
4,N=C(N)NCC1CCCC(CN(Cc2ccc3c(c2)OCCO3)C(=O)c2ccc3ccccc3c2)C1 (stereo not drawn) [Compound 66],50%
5,Cc1cc2c(cc1CN(CC1CCCC(CNC(=N)N)C1)C(=O)c1ccccc1)C(C)(C)CCC2(C)C (stereo not drawn) [Compound 56],56%
6,N=C(N)NCc1cccc(CN(CC23CC=CCC2C2CC=CCC2O3)C(=O)c2ccc3ccccc3c2)c1 (stereo not drawn) [Compound 39],46%
7,N=C(N)NCC1CCCC(CN(Cc2cnc3ccccc3c2)C(=O)c2cccc3ccccc23)C1 (stereo not drawn) [Compound 50],47%
8,Cc1cc(C(=O)N(Cc2cc3c(cc2C)C(C)(C)CCC3(C)C)CC2CCC(CNC(=N)N)CC2)n(C(C)(C)C)n1 (stereo not drawn) [Compound 105],56%
9,CC(=O)N(CCCCNC(=N)N)Cc1ccc(OCc2ccccc2)c(OCc2ccccc2)c1 [Compound 35],50%
10,CC(=O)N(Cc1ccc(CNC(=N)N)cc1)Cc1ccc(OCc2ccccc2)c(OCc2ccccc2)c1 [Compound 21],46%
11,N=C(N)NCC1CCCC(CN(CC23CC=CCC2C2CC=CCC2O3)C(=O)c2ccc(Cl)nc2)C1 (stereo not drawn) [Compound 49],53%
12,CC(C)(C)c1ccc(CN(CC2CCCC(CNC(=N)N)C2)C(=O)c2ccccc2)cc1 (stereo not drawn) [Compound 44],58%
13,CN(C)Cc1ccc(CN(CC2C=CCC3C4CC=CCC4OC23)C(=O)c2ccc3ccccc3c2)cc1 (stereo not drawn) [Compound 68],61%
14,N=C(N)NCc1ccc(CN(CC23CC=CCC2C2CC=CCC2O3)C(=O)c2ccc(Cl)nc2)cc1 (stereo not drawn) [Compound 9],51%
15,Cc1cc2c(cc1CN(Cc1ccc(CNC(=N)N)cc1)C(=O)c1cccc3ccccc13)C(C)(C)CCC2(C)C [Compound 11],55%
16,N=C(N)NCC1CCCC(CN(Cc2cnc3ccccc3c2)C(=O)c2ccc3ccccc3c2)C1 (stereo not drawn) [Compound 51],48%
17,CCCCC(CC)C(=O)N(Cc1cc2c(cc1C)C(C)(C)CCC2(C)C)CC1CCC(CNC(=N)N)CC1 (stereo not drawn) [Compound 117],59%
18,Cc1cc2c(cc1CN(CC1CCC(CNC(=N)N)CC1)C(=O)c1c(C)noc1C)C(C)(C)CCC2(C)C (stereo not drawn) [Compound 96],44%
19,CC(C)(C)c1ccc(CN(CC2CCC(CNC(=N)N)CC2)C(=O)C2CCCC2)cc1 (stereo not drawn) [Compound 73],59%

# Same assay, conditions: compound at 10 μM; crude compounds; 125I-GnRH-A; lower value = higher inhibition; read-out: % Remaining 2nd Test (percent of specific binding remaining)
row,Compound,remaining activity at 10 µM
1,N=C(N)NCc1ccc(CN(CC23CC=CCC2C2CC=CCC2O3)C(=O)c2ccco2)cc1 (stereo not drawn) [Compound 7],55%
2,N=C(N)NCc1ccc(CN(CC23CC=CCC2C2CC=CCC2O3)C(=O)c2ccc3ccccc3c2)cc1 (stereo not drawn) [Compound 5],33%
3,Cc1cc2c(cc1CN(Cc1ccc(CNC(=N)N)cc1)C(=O)c1ccccc1)C(C)(C)CCC2(C)C [Compound 14],54%
4,N=C(N)NCC1CCCC(CN(Cc2ccc3c(c2)OCCO3)C(=O)c2ccc3ccccc3c2)C1 (stereo not drawn) [Compound 66],57%
5,Cc1cc2c(cc1CN(CC1CCCC(CNC(=N)N)C1)C(=O)c1ccccc1)C(C)(C)CCC2(C)C (stereo not drawn) [Compound 56],60%
6,N=C(N)NCc1cccc(CN(CC23CC=CCC2C2CC=CCC2O3)C(=O)c2ccc3ccccc3c2)c1 (stereo not drawn) [Compound 39],45%
7,N=C(N)NCC1CCCC(CN(Cc2cnc3ccccc3c2)C(=O)c2cccc3ccccc23)C1 (stereo not drawn) [Compound 50],62%
8,Cc1cc(C(=O)N(Cc2cc3c(cc2C)C(C)(C)CCC3(C)C)CC2CCC(CNC(=N)N)CC2)n(C(C)(C)C)n1 (stereo not drawn) [Compound 105],56%
9,CC(=O)N(CCCCNC(=N)N)Cc1ccc(OCc2ccccc2)c(OCc2ccccc2)c1 [Compound 35],54%
10,CC(=O)N(Cc1ccc(CNC(=N)N)cc1)Cc1ccc(OCc2ccccc2)c(OCc2ccccc2)c1 [Compound 21],51%
11,N=C(N)NCC1CCCC(CN(CC23CC=CCC2C2CC=CCC2O3)C(=O)c2ccc(Cl)nc2)C1 (stereo not drawn) [Compound 49],62%
12,CC(C)(C)c1ccc(CN(CC2CCCC(CNC(=N)N)C2)C(=O)c2ccccc2)cc1 (stereo not drawn) [Compound 44],62%
13,CN(C)Cc1ccc(CN(CC2C=CCC3C4CC=CCC4OC23)C(=O)c2ccc3ccccc3c2)cc1 (stereo not drawn) [Compound 68],44%
14,N=C(N)NCc1ccc(CN(CC23CC=CCC2C2CC=CCC2O3)C(=O)c2ccc(Cl)nc2)cc1 (stereo not drawn) [Compound 9],53%
15,Cc1cc2c(cc1CN(Cc1ccc(CNC(=N)N)cc1)C(=O)c1cccc3ccccc13)C(C)(C)CCC2(C)C [Compound 11],50%
16,N=C(N)NCC1CCCC(CN(Cc2cnc3ccccc3c2)C(=O)c2ccc3ccccc3c2)C1 (stereo not drawn) [Compound 51],63%
17,CCCCC(CC)C(=O)N(Cc1cc2c(cc1C)C(C)(C)CCC2(C)C)CC1CCC(CNC(=N)N)CC1 (stereo not drawn) [Compound 117],54%
18,Cc1cc2c(cc1CN(CC1CCC(CNC(=N)N)CC1)C(=O)c1c(C)noc1C)C(C)(C)CCC2(C)C (stereo not drawn) [Compound 96],60%
19,CC(C)(C)c1ccc(CN(CC2CCC(CNC(=N)N)CC2)C(=O)C2CCCC2)cc1 (stereo not drawn) [Compound 73],57%
